Source: patent US20240334934A1, “FUNGICIDE MIXTURE” (priority 2021, published 2024)

Assays:
genus Bacillus = settings: statement of WO2015191789, Table 6; cited from earlier work
Puccinia triticina = test: Leaf disc assay, wheat leaf segments, preventive; format: in vivo; settings: rate 20 ppm, 8 dpi
Method: A CtmC stock was generated at 1000 ppm in DMSO, then Diluted 1:50 in water+Tween 20 at 0.025% resulting in a 20 ppm solution.
Puccinia triticina (also known as recondite, Brown rust, wheat): Wheat leaf segments are placed on agar in multiwell plates (24-well format) and sprayed with test solutions. After drying, the leaf disks are inoculated with a spore suspension of the fungus. After appropriate incubation the activity of a compound is assessed 8 dpi (days after inoculation) as preventive fungicidal activity.

[1] = test system: Fusarium langsethiae K5670; format: cell-based; settings: CtmC 10 ppm
[2] = test system: Fusarium sporotrichioides K7901; format: cell-based; settings: CtmC 10 ppm
Fusarium poae K8039 = test: Efficacy of purified CtmC alone in-vitro, 96 well plate, OD 620 nm; format: cell-based; settings: CtmC 10 ppm
Method: (§1) CtmC was dissolved in DMSO (Dimethylsulfoxid) to a final concentration of 1000 ppm to create a stock solution. A second dilutions of 1:10 was made in water+0.025% Tween 20. From this second dilution 10 μl are dispensed into a 96 well plate. To each well, 90 μl of medium (PDB—potato dextrose broth, plus 0.3% agar) with fungal spores are added and mixed, resulting in final CtmC concentrations of 10 ppm. All wells containing CtmC also contain DMSO (1%) and Tween 20 (0.0025%). In the following table 4 some of the species were tested using several distinct isolates (internal strain number indicated) to understand variability among different isolates of the same species sampled in different locations, producing different mycotoxins (genus Fusarium), or expressing various tolerances to fungicides of the SDHI (Succinate Dehydrogenase Inhibitor), SBI (Sterol Biosynthesis Inhibitors) and/or QoI (quinone outside inhibitors) classes (example: Zymoseptoria tritici). Different isolates had variable inoculum density and number of biological repicas, as indicated.

[3] = test system: Zymoseptoria tritici K6420; test: as above; format: cell-based; settings: CtmC 10 ppm
Method: as §1

Fusarium culmorum K5488 = test: as above; format: cell-based; settings: CtmC 10 ppm
Method: as §1

[4] = test system: Colletotrichum orbiculare K5770; test: as above; format: cell-based; settings: CtmC 10 ppm
Method: as §1

Cercospora sojina K5703 = test: as above; format: cell-based; settings: CtmC 10 ppm
Method: as §1

[5] = test system: Monographella nivalis K7484; test: as above; format: cell-based; settings: CtmC 10 ppm
Method: as §1

Fusarium culmorum K6937 = test: as above; format: cell-based; settings: CtmC 10 ppm
Method: as §1

[6] = test system: Gibberella avenacea K6939; test: as above; format: cell-based; settings: CtmC 10 ppm
Method: as §1

[7] = test system: Fusarium tricinctum K7454; test: as above; format: cell-based; settings: CtmC 10 ppm
Method: as §1

[8] = test system: Venturia inaequalis K6222; test: as above; format: cell-based; settings: CtmC 10 ppm
Method: as §1

[9] = test system: Rhynchosporium secalis K5917; test: as above; format: cell-based; settings: CtmC 10 ppm
Method: as §1

[10] = test system: Cercospora kikuchii K6080; test: as above; format: cell-based; settings: CtmC 10 ppm
Method: as §1

[11] = test system: Zymoseptoria tritici K6318; test: as above; format: cell-based; settings: CtmC 10 ppm
Method: as §1

[12] = test system: Corynespora cassiicola K5577; test: as above; format: cell-based; settings: CtmC 10 ppm
Method: as §1

[13] = test system: Colletotrichum lindemuthianum K5893; test: as above; format: cell-based; settings: CtmC 10 ppm
Method: as §1

Fusarium avenaceum K6940 = test: as above; format: cell-based; settings: CtmC 10 ppm
Method: as §1

[14] = test system: Ramularia collo-cygni K6218; test: as above; format: cell-based; settings: CtmC 10 ppm
Method: as §1

Microdochium majus K7482 = test: as above; format: cell-based; settings: CtmC 10 ppm
Method: as §1

[15] = test system: Ustilago segetum var. tritici K5349; test: as above; format: cell-based; settings: CtmC 10 ppm
Method: as §1

[16] = test system: Zymoseptoria tritici K6105; test: as above; format: cell-based; settings: CtmC 10 ppm
Method: as §1

[17] = test system: Fusarium tricinctum K7452; test: as above; format: cell-based; settings: CtmC 10 ppm
Method: as §1

Septoria glycines K5204 = test: as above; format: cell-based; settings: CtmC 10 ppm
Method: as §1

[18] = test system: Cochliobolus sativus K5817; test: as above; format: cell-based; settings: CtmC 10 ppm
Method: as §1

Fusarium culmorum K8196 = test: as above; format: cell-based; settings: CtmC 10 ppm
Method: as §1

C=C1NC(=O)CNC(=O)[C@H](CCCCN)NC(=O)[C@@]2(C)NC(=O)/C(=C/C)NC(=O)[C@H]3CSC(=N3)[C@@H](CC(N)=O)CC(=O)c3ccc(nc3[C@@H](C)NC(=O)[C@@H]3CCCN3C1=O)-c1nc(cs1)C1=N[C@H](CS1)C(=O)NC(=C)c1nc(cs1)-c1nc(cs1)C1=N[C@@H](CS1)C(=O)N[C@@H](C(=O)O)CS2 [CtmC, cyclothiazomycin C]
inhibitory activity (genus Bacillus): greatest inhibitory activity
control of fungal growth (%) (Puccinia triticina): 90%
efficacy (%) [1]: 94%
optical density at 620 nm ([1]; blank 0.053, untreated 0.346): 0.072
efficacy (%) [2]: 71%
optical density at 620 nm ([2]; blank 0.052, untreated 0.666): 0.231
efficacy (%) (Fusarium poae K8039): 62%
optical density at 620 nm (Fusarium poae K8039; blank 0.050, untreated 0.619): 0.267
efficacy (%) [3]: 93%
optical density at 620 nm ([3]; blank 0.048, untreated 0.257): 0.064
efficacy (%) (Fusarium culmorum K5488): 52%
optical density at 620 nm (Fusarium culmorum K5488; blank 0.046, untreated 0.374): 0.203
efficacy (%) [4]: 56%
optical density at 620 nm ([4]; blank 0.035, untreated 0.449): 0.218
efficacy (%) (Cercospora sojina K5703): 54%
optical density at 620 nm (Cercospora sojina K5703; blank 0.047, untreated 0.357): 0.188
efficacy (%) [5]: 90%
optical density at 620 nm ([5]; blank 0.054, untreated 0.233): 0.073
efficacy (%) (Fusarium culmorum K6937): 44%
optical density at 620 nm (Fusarium culmorum K6937; blank 0.052, untreated 0.528): 0.319
efficacy (%) [6]: 82%
optical density at 620 nm ([6]; blank 0.055, untreated 0.675): 0.165
efficacy (%) [7]: 65%
optical density at 620 nm ([7]; blank 0.050, untreated 0.463): 0.195
efficacy (%) [8]: 86%
optical density at 620 nm ([8]; blank 0.044, untreated 0.320): 0.082
efficacy (%) [9]: 95%
optical density at 620 nm ([9]; blank 0.046, untreated 0.378): 0.062
efficacy (%) [10]: 100%
optical density at 620 nm ([10]; blank 0.044, untreated 0.215): 0.043
efficacy (%) [11]: 98%
optical density at 620 nm ([11]; blank 0.054, untreated 0.253): 0.059
efficacy (%) [12]: 86%
optical density at 620 nm ([12]; blank 0.047, untreated 0.427): 0.100
efficacy (%) [13]: 45%
optical density at 620 nm ([13]; blank 0.046, untreated 0.373): 0.225
efficacy (%) (Fusarium avenaceum K6940): 52%
optical density at 620 nm (Fusarium avenaceum K6940; blank 0.054, untreated 0.410): 0.225
efficacy (%) [14]: 60%
optical density at 620 nm ([14]; blank 0.043, untreated 0.231): 0.119
efficacy (%) (Microdochium majus K7482): 96%
optical density at 620 nm (Microdochium majus K7482; blank 0.050, untreated 0.228): 0.057
efficacy (%) [15]: 97%
optical density at 620 nm ([15]; blank 0.044, untreated 0.304): 0.051
efficacy (%) [16]: 99%
optical density at 620 nm ([16]; blank 0.044, untreated 0.354): 0.046
efficacy (%) [17]: 68%
optical density at 620 nm ([17]; blank 0.052, untreated 0.498): 0.197
efficacy (%) (Septoria glycines K5204): 81%
optical density at 620 nm (Septoria glycines K5204; blank 0.044, untreated 0.414): 0.115
efficacy (%) [18]: 92%
optical density at 620 nm ([18]; blank 0.044, untreated 0.701): 0.095
efficacy (%) (Fusarium culmorum K8196): 48%
optical density at 620 nm (Fusarium culmorum K8196; blank 0.055, untreated 0.701): 0.388
